Test results from patent US9840478B2 (MERCK SHARP & DOHME CORP., priority 2013, dated 2017).

These molecules were tested on HIV-1 (H9IIIB strain) (assay: Cell-based HIV infection assay using a reporter (Cell-Based), MT4-GFP cells). Details: Human immunodeficiency virus 1, MT4-GFP cells infected with HIV-1 H9IIIB; 50% normal human serum; mean of at least two independent experiments; read-out: Cell-based IP.
Summary of the method: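 MT4-GFP cells (HIV LTR-driven GFP) infected 24 h with HIV-1 H9IIIB at low MOI, then washed and plated with compounds in RPMI + 50% normal human serum, 0.4% DMSO final. Green cells counted at 24 and 48 h; R0 = 48 h/24 h ratio, inhibition normalized to DMSO and triple-drug control; IC50 from 4-parameter fit.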

In order of falling IC50:
1. N[C@H](C(=O)Nc1cccc(F)c1CC[C@H]1CNCC2(CC2)N1C(=O)COc1ccccc1)C(c1ccc(F)cc1)c1ccc(F)cc1 [Example 368, (S)-2-amino-N-(3-fluoro-2-(2-((S)-4-(2-phenoxyacetyl)-4,7-diazaspiro[2.5]octan-5-yl)ethyl)phenyl)-3,3-bis(4-fluorophenyl)propanamide]  1500 nM
2. CC(C)[C@H](c1ccc(Cl)cc1)[C@H](N)C(=O)Nc1cccc(F)c1CC[C@H]1CNC[C@H](C)N1S(=O)(=O)c1ccccc1Cl [Example 271, (βR)-4-chloro-N-[2-(2-{(2S,6S)-1-[(2-chlorophenyl)sulfonyl]-6-methylpiperazin-2-yl}ethyl)-3-fluorophenyl]-β-(1-methylethyl)-L-phenylalaninamide]  1200 nM
3. N[C@H](C(=O)Nc1cccc(F)c1CC[C@@H]1CNCCN1S(=O)(=O)c1ccccc1)C(c1ccc(F)cc1)c1ccc(F)cc1 [Example 31, (S)-2-amino-N-(3-fluoro-2-(2-((R)-1-(phenylsulfonyl)piperazin-2-yl)ethyl)phenyl)-3,3-bis(4-fluorophenyl) propanamide]  850 nM
4. COC(=O)NC(C(=O)NC1CC(O)CC1CC[C@H]1CNCCN1S(=O)(=O)c1ccccc1)C(c1ccc(F)cc1)c1ccc(F)cc1 (stereo partly drawn) [Example 357, Methyl ((2R)-1,1-bis(4-fluorophenyl)-3-((4-hydroxy-2-(2-((S)-1-(phenylsulfonyl)piperazin-2-yl)ethyl)cyclopentyl)amino)-3-oxopropan-2-yl)carbamate]  820 nM
5. Nc1ccc(S(=O)(=O)N2CCNC[C@@H]2CCc2c(F)cncc2NC(=O)[C@@H](N)[C@@H](c2ccc(F)cc2)c2cc(F)cc(F)c2)cn1 [Example 29, (βS)-N-[4-(2-{(2S)-1[(6-aminopyridin-3-yl)sulfonyl]piperazin-2-yl}ethyl)-5-fluoropyridin-3-yl]-3,5-difluoro-β-(4-fluorophenyl)-L-phenylalaninamide]  520 nM
6. COC(=O)N[C@H](C(=O)Nc1cccc(F)c1CC[C@H]1CNC[C@H](C)N1S(C)(=O)=O)[C@@H](Cc1ccc(F)cc1)c1ccc(Cl)cc1 [Example 233, (βS)-4-chloro-β-(4-fluorobenzyl)-N-(3-fluoro-2-{2-[(2S,6S)-6-methyl-1-(methylsulfonyl)piperazin-2-yl]ethyl}phenyl)-Nα-(methoxycarbonyl)-L-phenylalaninamide]  330 nM
7. COC(=O)N[C@H](C(=O)Nc1cccc(F)c1CC[C@H]1CNC[C@H](C)N1S(=O)(=O)c1ccc(OC(F)(F)F)cc1)[C@@H](Cc1ccc(F)cc1)c1ccc(Cl)cc1 [Example 221, (βS)-4-chloro-β-(4-fluorobenzyl)-N-(3-fluoro-2-{2-[(2S,6S)-6-methyl-1-{[4-(trifluoromethoxy)phenyl]sulfonyl}piperazin-2-yl]ethyl}phenyl)-Nα-(methoxycarbonyl)-L-phenylalaninamide]  230 nM
8. C[C@H]1CNC[C@H](CCc2c(F)cccc2NC(=O)[C@@H](N)[C@H](c2cccc(F)c2)c2cccc(Cl)c2)N1S(=O)(=O)C1CC1 [Example 176, (βR)-3-chloro-N-(2-{2-[(2S,6S)-1-(cyclopropylsulfonyl)-6-methylpiperazin-2-yl]ethyl}-3-fluorophenyl)-β-(3-fluorophenyl)-L-phenylalaninamide]  190 nM
9. CS(=O)(=O)N1CCNC[C@@H]1CCc1c(F)cccc1NC(=O)[C@@H](N)[C@@H](c1ccc(Cl)cc1)C1CCOCC1 [Example 65, (βR)-4-chloro-N-(3-fluoro-2-{2-[(2S)-1-(methylsulfonyl)piperazin-2-yl]ethyl}phenyl)-β-(tetrahydro-2H-pyran-4-yl)-L-phenylalaninamide]  120 nM
10. C[C@H]1CNC[C@H](CCc2c(F)cccc2NC(=O)[C@@H](N)[C@@H](c2ccc(F)cc2)C2CCOCC2)N1S(=O)(=O)C1CC1 [Example 114, (βR)-N-(2-{2-[(2S,6S)-1-(cyclopropylsulfonyl)-6-methylpiperazin-2-yl]ethyl}-3-fluorophenyl)-4-fluoro-β-(tetrahydro-2H-pyran-4-yl)-L-phenylalaninamide]  100 nM
11. C[C@@H]1CNC[C@H](CCc2c(F)cccc2NC(=O)[C@@H](N)[C@H](c2cncc(F)c2)c2cccc(Cl)c2)N1S(=O)(=O)c1ccccc1 [Example 261, (βS)-3-chloro-N-(3-fluoro-2-{2-[(2S,6R)-6-methyl-1-(phenylsulfonyl)piperazin-2-yl]ethyl}phenyl)-β-(5-fluoropyridin-3-yl)-L-phenylalaninamide]  70 nM
12. CC(=O)Nc1cccc(S(=O)(=O)N2CCNC[C@@H]2CCc2c(F)cncc2NC(=O)C[C@@H](c2ccc(F)cc2)c2cc(F)cc(F)c2)c1 [Example 320, (3S)-N-(4-{2-[(2S)-1-{[3-(acetylamino)phenyl]sul-fonyl}piperazin-2-yl]ethyl}-5-fluoropyridin-3-yl)-3-(3,5-difluorophenyl)-3-(4-fluorophenyl)propanamide]  36 nM
13. COC(=O)N[C@H](C(=O)Nc1cccc(F)c1CC[C@H]1CNC[C@H](C)N1S(C)(=O)=O)[C@@H](c1ccc(Cl)cc1)C1CCOCC1 [Example 139, (βR)-4-chloro-N-(3-fluoro-2-{2-[(2S,6S)-6-methyl-1-(methylsulfonyl)piperazin-2-yl]ethyl}phenyl)-Nα-(methoxycarbonyl)-β-(tetrahydro-2H-pyran-4-yl)-L-phenylalaninamide]  36 nM
14. COC(=O)N[C@H](C(=O)Nc1cccc(F)c1CC[C@H]1CNC[C@H](C)N1S(=O)(=O)c1ccccc1)[C@@H](c1ccc(Cl)cc1)C(C)C [Example 111, (βR)-4-chloro-N-(3-fluoro-2-{2-[(2S,6S)-6-methyl-1-(phenylsulfonyl)piperazin-2-yl]ethyl}phenyl)-Nα-(methoxycarbonyl)-β-(1-methylethyl)-L-phenylalaninamide]  34 nM
15. C[C@H]1CNC[C@H](CCc2c(F)cccc2NC(=O)[C@@H](N)[C@H](c2cncc(F)c2)c2cccc(Cl)c2)N1S(=O)(=O)c1ccccc1 [Example 219, (βS)-3-chloro-N-(3-fluoro-2-{2-[(2S,6S)-6-methyl-1-(phenylsulfonyl)piperazin-2-yl]ethyl}phenyl)-β-(5-fluoropyridin-3-yl)-L-phenylalaninamide]  25 nM
16. CC[C@@H]1CNC[C@H](CCc2c(F)cccc2NC(=O)[C@@H](NC(=O)OC)[C@@H](c2ccc(Cl)cc2)C2CCOCC2)N1S(=O)(=O)c1ccccc1 [Example 267, methyl ((1R,2S)-1-(4-chlorophenyl)-3-((2-(2-((2S,6R)-6-ethyl-1-(phenylsulfonyl)piperazin-2-yl)ethyl)-3-fluorophenyl)amino)-3-oxo-1-(tetrahydro-2H-pyran-4-yl)propan-2-yl)carbamate]  24 nM
17. COC(=O)N[C@H](C(=O)N[C@H]1CCCC[C@@H]1CC[C@H]1CNCCN1S(=O)(=O)c1ccccc1)C(c1ccc(F)cc1)c1ccc(F)cc1 [Example 354, methyl ((S)-1,1-bis(4-fluorophenyl)-3-oxo-3-(((1S,2R)-2-(2-((S)-1-(phenylsulfonyl)piperazin-2-yl)ethyl)cyclohexyl)amino)propan-2-yl)carbamate]  22 nM
18. COc1ccc(S(=O)(=O)N2[C@@H](CCc3c(F)cccc3NC(=O)[C@@H](N)[C@H](c3cccc(F)c3)c3cccc(Cl)c3)CNC[C@@H]2C)cc1 [Example 162, (βR)-3-chloro-N-[3-fluoro-2-(2-{(2S,6S)-1-[(4-methoxyphenyl)sulfonyl]-6-methylpiperazin-2-yl}ethyl)phenyl]-β-(3-fluorophenyl)-L-phenylalaninamide]  22 nM
19. COc1ccc(S(=O)(=O)N2[C@@H](CCc3c(F)cccc3NC(=O)[C@@H](N)C(c3cccc(F)c3)c3cccc(F)c3)CNC[C@@H]2C)cc1 [Example 156, 3-fluoro-N-[3-fluoro-2-(2-{(2S,6S)-1-[(4-methoxyphenyl)sulfonyl]-6-methylpiperazin-2-yl}ethyl)phenyl]-β-(3-fluorophenyl)-L-phenylalaninamide]  14 nM
20. COC(=O)N[C@H](C(=O)Nc1cccc(F)c1CC[C@H]1CNCCN1S(=O)(=O)c1ccccc1)C(c1cc(F)cc(F)c1)c1cc(F)cc(F)c1 [Example 51, β-(3,5-difluorophenyl)-3,5-difluoro-N-(3-fluoro-2-{2-[(2S)-1-(phenylsulfonyl)piperazin-2yl]ethyl}phenyl)-Nα-(methoxycarbonyl)-L-phenylalaninamide]  11 nM
21. COC(=O)N[C@H](C(=O)Nc1cncc(F)c1CC[C@H]1CNCCN1S(=O)(=O)c1ccccc1)[C@@H](c1ccc(Cl)cc1)c1cccc(F)c1 [Example 53, (βS)-4-chloro-β-(3-fluorophenyl)-N-(5-fluoro-4-{2-[(2S)-1-(phenylsulfonyl)piperazin-2-yl]ethyl}pyridin-3-yl)-Nα-(methoxycarbonyl)-L-phenylalaninamide]  6.5 nM
22. N[C@H](C(=O)Nc1cncc(F)c1CC[C@H]1CNCCN1S(=O)(=O)c1ccccc1)C(c1cccc(F)c1)c1cccc(F)c1 [Example 4, (S)-2-Amino-N-(5-fluoro-4-(2-((S)-1-(phenylsulfonyl)piperazin-2-yl)ethyl)pyridine-3-yl)-3,3-bis(3-fluorophenyl)propanamide]  4.3 nM
23. Cc1ccc(S(=O)(=O)N2CCNC[C@@H]2CCc2c(F)cccc2NC(=O)[C@@H](N)[C@@H](c2ccc(F)cc2)c2cc(F)cc(F)c2)o1 [Example 373, (2S,3S)-2-amino-3-(3,5-difluorophenyl)-N-(3-fluoro-2-(2-((S)-1-((5-methylfuran-2-yl)sulfonyl)piperazin-2-yl)ethyl)phenyl)-3-(4-fluorophenyl)propanamide]  4.2 nM

Same assay, conditions: MT4-GFP cells infected with HIV-1 H9IIIB; 50% normal human serum; mean of at least two independent experiments; read-out: Cell-based IP

In the case of `COC(=O)NC(C(=O)NC1CC1CC[C@H]1CNCCN1S(=O)(=O)c1ccccc1)C(c1ccc(F)cc1)c1ccc(F)cc1` (single isomer, unassigned) [Example 363], the IC50 is reported as 370 nM.
